From patent publication US20070128217A1 (priority 2003, published 2007)

Key:
[1] = test system: rabbit serum obtained by immunizing a rabbit with the SARS-CoV strain Frankfurt 1; assay type: binding; set-up: Binding of a rabbit serum to linear peptides / Binding of a rabbit serum to looped peptides / Rabbit serum linear peptides / Rabbit serum looped peptides / Binding of a rabbit serum to linear peptides of protein N of SARS-CoV Urbani (Rabbit serum linear peptides) / Binding of a rabbit serum to looped/cyclic peptides of protein N of SARS-CoV Urbani (Rabbit serum looped peptides): unit not given here
[2] = test system: control sera (pooled serum of ten healthy LUMC hospital workers; commercial negative donor pooled serum from the Dutch bloodbank); assay type: binding, human; set-up: Binding of Control serum LUMC to linear peptides / Binding of Control serum Blood-bank to linear peptides / Binding of Control serum LUMC to looped peptides / Binding of Control Serum Blood-Bank to Looped peptides / Binding of Control serum LUMC to linear peptides of the protein M of SARS-CoV Urbani / Binding of Control serum Blood-bank to linear peptides of the protein M of SARS-CoV Urbani / Binding of Control serum LUMC to looped peptides of the protein M of SARS-CoV Urbani / Binding of Control Serum Blood-Bank to Looped peptides of the protein M of SARS-CoV Urbani: unit not given here
[3] = test system: antibodies in sera from SARS patients (sera 1a, 1b, 2, 6, 37, 62, London, SARS-yellow, SARS-green); assay type: binding, human; set-up: Binding of serum 6 to linear peptides of protein X1 of SARS-CoV Urbani / Binding of serum 37 to linear peptides of protein X1 of SARS-CoV Urbani / Binding of serum 6 to looped/cyclic peptide (PEPSCAN-ELISA) / Binding of serum 37 to looped/cyclic peptide (PEPSCAN-ELISA) / Binding of serum 37 to looped/cyclic peptides of protein X1 of SARS-CoV Urbani / Binding of serum 6 to linear peptides of protein X2 / Binding of serum 37 to linear peptides of protein X2 / Binding of serum 37 to looped/cyclic peptides of protein X2 of SARS-CoV Urbani / Binding of serum 6 to linear peptides of protein M of SARS-CoV Urbani / Binding of serum 37 to linear peptides of protein M of SARS-CoV Urbani / Binding of serum 6 to looped/cyclic peptides of protein M of SARS-CoV Urbani / Binding of serum 37 to looped/cyclic peptides of protein M of SARS-CoV Urbani / Binding of serum 6 to linear peptides of protein X3 of SARS-CoV Urbani / Binding of serum 37 to linear peptides of protein X3 of SARS-CoV Urbani / Binding of serum 37 to looped/cyclic peptides of protein X3 of SARS-CoV Urbani / Binding of serum 6 to linear peptides of protein X4 of SARS-CoV Urbani / Binding of serum 37 to linear peptides of protein X4 of SARS-CoV Urbani / Binding of serum 37 to looped/cyclic peptides of protein X4 of SARS-CoV Urbani / Binding of serum 6 to linear peptides of protein X5 of SARS-CoV Urbani / Binding of serum 37 to linear peptides of protein X5 of SARS-CoV Urbani / Binding of serum 37 to looped/cyclic peptides of protein X5 of SARS-CoV Urbani / Binding of serum 6 to linear peptides of protein N of SARS-CoV Urbani / Binding of serum 37 to linear peptides of protein N of SARS-CoV Urbani / Binding of serum 6 to linear peptide (PEPSCAN-ELISA) / Binding of serum 1a to looped/cyclic peptides of protein N of SARS-CoV Urbani / Binding of serum 1b to looped/cyclic peptides of protein N of SARS-CoV Urbani / Binding of serum 2 to looped/cyclic peptides of protein N of SARS-CoV Urbani / Binding of serum 6 to looped/cyclic peptides of protein N of SARS-CoV Urbani / Binding of serum 37 to looped/cyclic peptides of protein N of SARS-CoV Urbani / Binding of serum 62 to looped/cyclic peptides of protein N of SARS-CoV Urbani / Binding of serum London to looped/cyclic peptides of protein N of SARS-CoV Urbani / Binding of serum SARS-green to looped/cyclic peptides of protein N of SARS-CoV Urbani: unit not given here

## FRIAIWNLDVIISSI
[1]
  Rabbit serum linear peptides: 0.3
  Rabbit serum looped peptides: 0.2
[2]
  Binding of Control Serum Blood-Bank to Looped peptides of the protein X3 of SARS-CoV Urbani: 0.8
  Binding of Control serum Blood-bank to linear peptides of the protein X3 of SARS-CoV Urbani: 0.7
  Binding of Control serum LUMC to linear peptides of the protein X3 of SARS-CoV Urbani: 0.6
  Binding of Control serum LUMC to looped peptides of the protein X3 of SARS-CoV Urbani: 0.7
[3]
  Binding of serum 1a to linear peptides of protein X3 of SARS-CoV Urbani: 0.8
  Binding of serum 1a to looped/cyclic peptides of protein X3 of SARS-CoV Urbani: 0.7
  Binding of serum 1b to linear peptides of protein X3 of SARS-CoV Urbani: 0.5
  Binding of serum 1b to looped/cyclic peptides of protein X3 of SARS-CoV Urbani: 0.5
  Binding of serum 2 to linear peptides of protein X3 of SARS-CoV Urbani: 0.6
  Binding of serum 2 to looped/cyclic peptides of protein X3 of SARS-CoV Urbani: 0.7
  Binding of serum 6 to linear peptides of protein X3 of SARS-CoV Urbani: 0.4
  Binding of serum 6 to looped/cyclic peptides of protein X3 of SARS-CoV Urbani: 0.3
  Binding of serum 37 to linear peptides of protein X3 of SARS-CoV Urbani: 0.5
  Binding of serum 37 to looped/cyclic peptides of protein X3 of SARS-CoV Urbani: 0.6
  Binding of serum 62 to linear peptides of protein X3 of SARS-CoV Urbani: 0.7
  Binding of serum 62 to looped/cyclic peptides of protein X3 of SARS-CoV Urbani: 0.6
  Binding of serum London to linear peptides of protein X3 of SARS-CoV Urbani: 0.7
  Binding of serum London to looped/cyclic peptides of protein X3 of SARS-CoV Urbani: 0.2
  Binding of serum SARS-green to linear peptides of protein X3 of SARS-CoV Urbani: 0.4
  Binding of serum SARS-green to looped/cyclic peptides of protein X3 of SARS-CoV Urbani: 0.2
  Binding of serum SARS-yellow to linear peptides of protein X3 of SARS-CoV Urbani: 0.7
  Binding of serum SARS-yellow to looped/cyclic peptides of protein X3 of SARS-CoV Urbani: 0.8

## VATSRTLSYYKLGAS
[1]
  Rabbit serum linear peptides: 0.3
  Rabbit serum looped peptides: 0.7
[2]
  Binding of Control Serum Blood-Bank to Looped peptides of the protein M of SARS-CoV Urbani: 0.5
  Binding of Control serum Blood-bank to linear peptides of the protein M of SARS-CoV Urbani: 0.8
  Binding of Control serum LUMC to linear peptides of the protein M of SARS-CoV Urbani: 0.6
  Binding of Control serum LUMC to looped peptides of the protein M of SARS-CoV Urbani: 0.6
[3]
  Binding of serum 1a to linear peptides of protein M of SARS-CoV Urbani: 0.6
  Binding of serum 1a to looped/cyclic peptides of protein M of SARS-CoV Urbani: 0.8
  Binding of serum 1b to linear peptides of protein M of SARS-CoV Urbani: 0.5
  Binding of serum 1b to looped/cyclic peptides of protein M of SARS-CoV Urbani: 0.6
  Binding of serum 2 to linear peptides of protein M of SARS-CoV Urbani: 0.6
  Binding of serum 2 to looped/cyclic peptides of protein M of SARS-CoV Urbani: 0.7
  Binding of serum 6 to linear peptides of protein M of SARS-CoV Urbani: 0.8
  Binding of serum 6 to looped/cyclic peptides of protein M of SARS-CoV Urbani: 0.6
  Binding of serum 37 to linear peptides of protein M of SARS-CoV Urbani: 0.5
  Binding of serum 37 to looped/cyclic peptides of protein M of SARS-CoV Urbani: 0.7
  Binding of serum 62 to linear peptides of protein M of SARS-CoV Urbani: 0.5
  Binding of serum 62 to looped/cyclic peptides of protein M of SARS-CoV Urbani: 0.6
  Binding of serum London to linear peptides of protein M of SARS-CoV Urbani: 0.3
  Binding of serum London to looped/cyclic peptides of protein M of SARS-CoV Urbani: 0.2
  Binding of serum SARS-green to linear peptides of protein M of SARS-CoV Urbani: 0.4
  Binding of serum SARS-green to looped/cyclic peptides of protein M of SARS-CoV Urbani: 0.3
  Binding of serum SARS-yellow to linear peptides of protein M of SARS-CoV Urbani: 0.3
  Binding of serum SARS-yellow to looped/cyclic peptides of protein M of SARS-CoV Urbani: 0.6

## RINWVTGGIAIAMAC
[1]
  Rabbit serum linear peptides: 0.2
  Rabbit serum looped peptides: 0.4
[2]
  Binding of Control Serum Blood-Bank to Looped peptides of the protein M of SARS-CoV Urbani: 0.5
  Binding of Control serum Blood-bank to linear peptides of the protein M of SARS-CoV Urbani: 0.8
  Binding of Control serum LUMC to linear peptides of the protein M of SARS-CoV Urbani: 0.8
  Binding of Control serum LUMC to looped peptides of the protein M of SARS-CoV Urbani: 0.8
[3]
  Binding of serum 1a to linear peptides of protein M of SARS-CoV Urbani: 0.7
  Binding of serum 1a to looped/cyclic peptides of protein M of SARS-CoV Urbani: 0.7
  Binding of serum 1b to linear peptides of protein M of SARS-CoV Urbani: 0.7
  Binding of serum 1b to looped/cyclic peptides of protein M of SARS-CoV Urbani: 0.2
  Binding of serum 2 to linear peptides of protein M of SARS-CoV Urbani: 0.6
  Binding of serum 2 to looped/cyclic peptides of protein M of SARS-CoV Urbani: 0.6
  Binding of serum 6 to linear peptides of protein M of SARS-CoV Urbani: 0.8
  Binding of serum 6 to looped/cyclic peptides of protein M of SARS-CoV Urbani: 0.4
  Binding of serum 37 to linear peptides of protein M of SARS-CoV Urbani: 0.5
  Binding of serum 37 to looped/cyclic peptides of protein M of SARS-CoV Urbani: 0.7
  Binding of serum 62 to linear peptides of protein M of SARS-CoV Urbani: 0.5
  Binding of serum 62 to looped/cyclic peptides of protein M of SARS-CoV Urbani: 0.7
  Binding of serum London to linear peptides of protein M of SARS-CoV Urbani: 0.5
  Binding of serum London to looped/cyclic peptides of protein M of SARS-CoV Urbani: 0.2
  Binding of serum SARS-green to linear peptides of protein M of SARS-CoV Urbani: 0.6
  Binding of serum SARS-green to looped/cyclic peptides of protein M of SARS-CoV Urbani: 0.3
  Binding of serum SARS-yellow to linear peptides of protein M of SARS-CoV Urbani: 0.3
  Binding of serum SARS-yellow to looped/cyclic peptides of protein M of SARS-CoV Urbani: 0.7
